Measurements published in patent publication US9445594B2, “Molecules having certain pesticidal utilities, intermediates, compositions, and processes, related thereto” (priority 2014, dated 2016).

Assays:
Assay type in all cases: in vivo
[1] = test system: Beet Armyworm (Spodoptera exigua, LAPHEG) ("BAW"); assay: Bioassays on BAW, 128-well diet tray assay; settings: 168 h, second instar larvae, 50 μg/cm^2 on artificial diet, 25° C., five to seven days, average of eight wells, read-out: BAW % Control (or Mortality) rating
Procedure: (§1) Certain molecules disclosed in this document were tested against BAW, CEW, and CL using procedures described in the following examples. In the reporting of the results, the “BAW, CEW, & CL Rating Table” was used (See Table Section).
Bioassays on BAW were conducted using a 128-well diet tray assay. one to five second instar BAW larvae were placed in each well (3 mL) of the diet tray that had been previously filled with 1 mL of artificial diet to which 50 μg/cm^2 of the test compound (dissolved in 50 μL of 90:10 acetone-water mixture) had been applied (to each of eight wells) and then allowed to dry. Trays were covered with a clear self-adhesive cover and held at 25° C., 14:10 light-dark for five to seven days. Percent mortality was recorded for the larvae in each well; activity in the eight wells was then averaged. The results are indicated in the table entitled “Table ABC: Biological Results” (See Table Section).

[2] = test system: Cabbage Looper (Trichoplusia ni, TRIPNI) ("CL"); assay: Bioassays on CL, 128-well diet tray assay; settings: 168 h, second instar larvae, 50 μg/cm^2 on artificial diet, 25° C., five to seven days, average of eight wells, read-out: CL % Control (or Mortality) rating
Procedure: as §1
Bioassays on CL were conducted using a 128-well diet tray assay. one to five second instar CL larvae were placed in each well (3 mL) of the diet tray that had been previously filled with 1 mL of artificial diet to which 50 μg/cm^2 of the test compound (dissolved in 50 μL of 90:10 acetone-water mixture) had been applied (to each of eight wells) and then allowed to dry. Trays were covered with a clear self-adhesive cover and held at 25° C., 14:10 light-dark for five to seven days. Percent mortality was recorded for the larvae in each well; activity in the eight wells was then averaged. The results are indicated in the table entitled “Table ABC: Biological Results” (See Table Section).

[3] = test system: Yellow Fever Mosquito (Aedes aegypti, AEDSAE) ("YFM"); assay: Bioassays on YFM, 96-well plate larval assay; settings: about 1 day-old larvae, from 4000 ppm DMSO master plate diluted, room temperature, scored after 3 days
Procedure: Certain molecules disclosed in this document were tested against YFM using procedures described in the following paragraph. In the reporting of the results, the “YFM Rating Table” was used (See Table Section).
Master plates containing 400 μg of a molecule dissolved in 100 μL of dimethyl sulfoxide (DMSO) (equivalent to a 4000 ppm solution) are used. A master plate of assembled molecules contains 15 μL per well. To this plate, 135 μL of a 90:10 water:acetone mixture is added to each well. A robot (Biomek® NXP Laboratory Automation Workstation) is programmed to dispense 15 μL aspirations from the master plate into an empty 96-well shallow plate (“daughter” plate). There are 6 reps (“daughter” plates) created per master. The created daughter plates are then immediately infested with YFM larvae.
The day before plates are to be treated, mosquito eggs are placed in Millipore water containing liver powder to begin hatching (4 g. into 400 mL). After the daughter plates are created using the robot, they are infested with 220 μL of the liver powder/larval mosquito mixture (about 1 day-old larvae). After plates are infested with mosquito larvae, a non-evaporative lid is used to cover the plate to reduce drying. Plates are held at room temperature for 3 days prior to grading. After 3 days, each well is observed and scored based on mortality.

SMILES | mortality at 50 µg/cm2 [1] [%] | mortality at 50 µg/cm2 [2] [%] | YFM % Control (or Mortality) rating [3]
FC(F)(F)Oc1ccc(-n2cnc(-c3ccc(NC(=S)Nc4ccccc4-c4ccccc4)cc3)n2)cc1 [F47, 1-([1,1′-Biphenyl]-2-yl)-3-(4-(1-(4-(trifluoromethoxy)phenyl)-1H-1,2,4-triazol-3-yl)phenyl)thiourea] | 0 | 50 to 100 | D (No activity noticed in this bioassay)
Cc1ccc(NC(=O)NCCCCc2ccc(-c3ncn(-c4ccc(OC(F)(F)F)cc4)n3)cc2)cc1 [F99, 1-(p-Tolyl)-3-(4-(4-(1-(4-(trifluoromethoxy)phenyl)-1H-1,2,4-triazol-3-yl)phenyl)butyl)urea] | 0 to 50 | 0 | D (No activity noticed in this bioassay)
Cc1ccccc1NC(=O)NCCCc1ccc(-c2ncn(-c3ccc(OC(F)(F)F)cc3)n2)cc1 [F77, 1-(o-tolyl)-3-(3-(4-(1-(4-(trifluoromethoxy)phenyl)-1H-1,2,4-triazol-3-yl)phenyl)propyl)urea] | 50 to 100 | 50 to 100 | A (80-100)
Cc1cccc(NC(=O)NCc2ccc(-c3ncn(-c4ccc(OC(F)(F)F)cc4)n3)cc2)c1 [F108, 1-(m-Tolyl)-3-(4-(1-(4-(trifluoromethoxy)phenyl)-1H-1,2,4-triazol-3-yl)benzyl)urea] | 0 | 0 | D (No activity noticed in this bioassay)
Cc1ccccc1NC(=O)NCc1ccc(-c2ncn(-c3ccc(OC(F)(F)F)cc3)n2)cc1 [F100, 1-(o-Tolyl)-3-(4-(1-(4-(trifluoromethoxy)phenyl)-1H-1,2,4-triazol-3-yl)benzyl)urea] | 0 | 0 | D (No activity noticed in this bioassay)
O=C(NCCCc1ccc(-c2ncn(-c3ccc(OC(F)(F)F)cc3)n2)cc1)Nc1cccc(Cl)c1 [F85, 1-(3-Chlorophenyl)-3-(3-(4-(1-(4-(trifluoromethoxy)phenyl)-1H-1,2,4-triazol-3-yl)phenyl)propyl)urea] | 50 to 100 | 50 to 100 | A (80-100)
COc1ccccc1NC(=O)NCCCCc1ccc(-c2ncn(-c3ccc(OC(F)(F)F)cc3)n2)cc1 [F95, 1-(2-Methoxyphenyl)-3-(4-(4-(1-(4-(trifluoromethoxy)phenyl)-1H-1,2,4-triazol-3-yl)phenyl)butyl)urea] | 0 | 50 to 100 | D (No activity noticed in this bioassay)
O=C(NCCCc1ccc(-c2ncn(-c3ccc(OC(F)(F)F)cc3)n2)cc1)Nc1ccccc1Cl [F84, 1-(2-Chlorophenyl)-3-(3-(4-(1-(4-(trifluoromethoxy)phenyl)-1H-1,2,4-triazol-3-yl)phenyl)propyl)urea] | 50 to 100 | 50 to 100 | B (More than 0 - Less than 80)
O=C(Nc1ccc(-c2ncn(-c3ccc(OC(F)(F)C(F)(F)F)cc3)n2)cc1)Nc1ccccc1OC(F)(F)F [F1, 1-(4-(1-(4-(Perfluoroethoxy)phenyl)-1H-1,2,4-triazol-3-yl)phenyl)-3-(2-(trifluoromethoxy)phenyl)urea] | 0 | 50 to 100 | D (No activity noticed in this bioassay)
CC(C)c1ccccc1NC(=S)NCCCCc1ccc(-c2ncn(-c3ccc(OC(F)(F)F)cc3)n2)cc1 [F88, 1-(2-Isopropylphenyl)-3-(4-(4-(1-(4-(trifluoromethoxy)phenyl)-1H-1,2,4-triazol-3-yl)phenyl)butyl)thiourea] | 50 to 100 | 50 to 100 | A (80-100)
FC(F)(F)Oc1ccc(-n2cnc(-c3ccc(NC(=S)Nc4ncccc4-c4ccccc4)cc3)n2)cc1 [F50, 1-(3-Phenylpyridin-2-yl)-3-(4-(1-(4-(trifluoromethoxy)phenyl)-1H-1,2,4-triazol-3-yl)phenyl)thiourea] | 0 | 0 | D (No activity noticed in this bioassay)
COc1cccc(NC(=O)NCc2ccc(-c3ncn(-c4ccc(OC(F)(F)F)cc4)n3)cc2)c1 [F107, 1-(3-Methoxyphenyl)-3-(4-(1-(4-(trifluoromethoxy)phenyl)-1H-1,2,4-triazol-3-yl)benzyl)urea] | 0 | 0 | B (More than 0 - Less than 80)
O=C(NCc1ccc(-c2ncn(-c3ccc(OC(F)(F)F)cc3)n2)cc1)Nc1ccccc1Cl [F104, 1-(2-Chlorophenyl)-3-(4-(1-(4-(trifluoromethoxy)phenyl)-1H-1,2,4-triazol-3-yl)benzyl)urea] | 50 to 100 | 0 to 50 | B (More than 0 - Less than 80)
CC(C)c1ccccc1NC(=O)NCCCCc1ccc(-c2ncn(-c3ccc(OC(F)(F)F)cc3)n2)cc1 [F90, 1-(2-Isopropylphenyl)-3-(4-(4-(1-(4-(trifluoromethoxy)phenyl)-1H-1,2,4-triazol-3-yl)phenyl)butyl)urea] | 0 | 0 | D (No activity noticed in this bioassay)
CCOc1cccc(NC(=O)Nc2ccc(-c3ncn(-c4ccc(OC(F)(F)F)cc4)n3)cc2)c1 [F39, 1-(3-ethoxyphenyl)-3-(4-(1-(4-(trifluoromethoxy)phenyl)-1H-1,2,4-triazol-3-yl)phenyl)urea] | 0 | 50 to 100 | D (No activity noticed in this bioassay)
CCc1ccccc1NC(=O)NCCCc1ccc(-c2ncn(-c3ccc(OC(F)(F)F)cc3)n2)cc1 [F86, 1-(2-Ethylphenyl)-3-(3-(4-(1-(4-(trifluoromethoxy)phenyl)-1H-1,2,4-triazol-3-yl)phenyl)propyl)urea] | 50 to 100 | 50 to 100 | A (80-100)
COc1ccccc1NC(=O)NCc1ccc(-c2ncn(-c3ccc(OC(F)(F)F)cc3)n2)cc1 [F106, 1-(2-Methoxyphenyl)-3-(4-(1-(4-(trifluoromethoxy)phenyl)-1H-1,2,4-triazol-3-yl)benzyl)urea] | 0 | 0 | D (No activity noticed in this bioassay)
O=C(Nc1ccc(-c2ncn(-c3ccc(OC(F)(F)F)cc3)n2)cc1)Nc1ccccc1-c1cccnc1 [F62, 1-(2-(Pyridin-3-yl)phenyl)-3-(4-(1-(4-(trifluoromethoxy)phenyl)-1H-1,2,4-triazol-3-yl)phenyl)urea] | 50 to 100 | 50 to 100 | B (More than 0 - Less than 80)
O=C(Nc1ccc(-c2ncn(-c3ccc(OC(F)(F)F)cc3)n2)cc1)Nc1ccccc1OC(F)(F)F [F26, 1-(2-(Trifluoromethoxy)phenyl)-3-(4-(1-(4-(trifluoromethoxy)phenyl)-1H-1,2,4-triazol-3-yl)phenyl)urea] | 50 to 100 | 50 to 100 | D (No activity noticed in this bioassay)
